Measurements reported in patent US8956824B2, “Methods for identifying allosteric modulators of ship polypeptides” (British Columbia Cancer Agency Branch, priority 2006, dated 2015).

How the values were obtained:
wild-type SHIP1 enzyme = molecular target: T1, wild-type SHIP1 enzyme (Mus musculus, UniProt Q9ES52); experiment: Scintillation proximity assay, wild-type SHIP1; assay type: binding; conditions: 5 μCi
T1 construct: Full length, wild-type SHIP1 enzyme (wt); made in house; host or cells: 293T cells, transient transfection with pME18S-His-SHIP
T1 sequence (Q9ES52 1-1191): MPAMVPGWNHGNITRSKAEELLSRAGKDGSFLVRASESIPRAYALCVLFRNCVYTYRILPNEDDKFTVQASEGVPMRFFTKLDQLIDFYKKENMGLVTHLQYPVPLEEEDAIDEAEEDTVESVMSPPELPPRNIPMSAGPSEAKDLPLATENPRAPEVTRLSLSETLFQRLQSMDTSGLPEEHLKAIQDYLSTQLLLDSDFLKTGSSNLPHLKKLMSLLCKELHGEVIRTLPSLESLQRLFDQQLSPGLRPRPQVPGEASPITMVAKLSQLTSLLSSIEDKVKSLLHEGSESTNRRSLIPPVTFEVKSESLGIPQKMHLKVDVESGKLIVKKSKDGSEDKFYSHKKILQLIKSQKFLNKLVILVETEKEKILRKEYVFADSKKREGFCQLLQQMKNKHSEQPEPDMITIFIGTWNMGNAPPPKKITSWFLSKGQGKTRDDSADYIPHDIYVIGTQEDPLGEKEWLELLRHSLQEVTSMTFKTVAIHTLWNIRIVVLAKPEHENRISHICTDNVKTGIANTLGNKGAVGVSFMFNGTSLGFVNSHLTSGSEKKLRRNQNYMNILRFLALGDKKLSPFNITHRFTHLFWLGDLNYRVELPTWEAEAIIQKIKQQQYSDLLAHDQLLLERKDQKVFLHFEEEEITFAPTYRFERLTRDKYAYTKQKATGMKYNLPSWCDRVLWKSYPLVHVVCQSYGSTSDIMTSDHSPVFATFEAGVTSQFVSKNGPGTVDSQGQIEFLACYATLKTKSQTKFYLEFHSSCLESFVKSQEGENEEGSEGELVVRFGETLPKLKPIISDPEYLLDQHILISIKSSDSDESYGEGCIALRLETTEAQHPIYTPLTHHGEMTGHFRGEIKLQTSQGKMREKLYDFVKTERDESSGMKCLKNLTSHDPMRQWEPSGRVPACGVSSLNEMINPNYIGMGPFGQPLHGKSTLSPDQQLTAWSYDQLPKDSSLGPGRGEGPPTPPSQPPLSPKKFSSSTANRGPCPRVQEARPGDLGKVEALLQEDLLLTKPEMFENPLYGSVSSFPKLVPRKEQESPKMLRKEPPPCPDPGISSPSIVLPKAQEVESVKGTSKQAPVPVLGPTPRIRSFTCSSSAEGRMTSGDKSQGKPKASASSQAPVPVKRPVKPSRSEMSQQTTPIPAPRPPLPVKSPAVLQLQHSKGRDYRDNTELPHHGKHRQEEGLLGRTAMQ
Protocol: Scintillation Proximity Assays AQX-MN100 was radiolabeled with tritium by GE Healthcare (Piscataway, N.J.) to a specific activity of 42 Ci/mmole. Copper chelate (His-Tag) YSi YSi SPA Scintillation Beads (GE Healthcare ,Piscataway, NJ) were diluted in 0.25% BSA/TBS to 1.5 mg/mL and recombinant, His6-tagged protein added at the indicated concentrations: wild-type (1 pM), ΔC2 SHIP enzyme (1 pM) or C2 domain (10 nM). Protein was allowed to bind 1 h at 23° C., and 250 μg of beads were aliquoted per well of a 96-well plate. 5 μCi of [3H]-AQX-MN100 was added per well, the plate gently agitated for 30 min and the amount of bead associated radioactivity quantified by counting in a Wallac BETAPLATE™ plate scintillation counter. Results are representative of 3 independent experiments.

PH domain deleted SHIP1 = molecular target: T2, PH domain deleted SHIP1 (Mus musculus, UniProt Q9ES52, DEL292-400/E403A/P402A/Q401A); experiment: Scintillation proximity assay, PH domain deleted SHIP1; assay type: binding
T2 construct: Full length, wild-type SHIP1 enzyme (wt) or SHIP1 enzyme in which the PH or C2 domains were deleted; His6 (N); made in house; 293T cells are stated only for the wild-type enzyme
T2 sequence (Q9ES52 with tags, fused parts or gaps DEL292-400/Q401A/P402A/E403A): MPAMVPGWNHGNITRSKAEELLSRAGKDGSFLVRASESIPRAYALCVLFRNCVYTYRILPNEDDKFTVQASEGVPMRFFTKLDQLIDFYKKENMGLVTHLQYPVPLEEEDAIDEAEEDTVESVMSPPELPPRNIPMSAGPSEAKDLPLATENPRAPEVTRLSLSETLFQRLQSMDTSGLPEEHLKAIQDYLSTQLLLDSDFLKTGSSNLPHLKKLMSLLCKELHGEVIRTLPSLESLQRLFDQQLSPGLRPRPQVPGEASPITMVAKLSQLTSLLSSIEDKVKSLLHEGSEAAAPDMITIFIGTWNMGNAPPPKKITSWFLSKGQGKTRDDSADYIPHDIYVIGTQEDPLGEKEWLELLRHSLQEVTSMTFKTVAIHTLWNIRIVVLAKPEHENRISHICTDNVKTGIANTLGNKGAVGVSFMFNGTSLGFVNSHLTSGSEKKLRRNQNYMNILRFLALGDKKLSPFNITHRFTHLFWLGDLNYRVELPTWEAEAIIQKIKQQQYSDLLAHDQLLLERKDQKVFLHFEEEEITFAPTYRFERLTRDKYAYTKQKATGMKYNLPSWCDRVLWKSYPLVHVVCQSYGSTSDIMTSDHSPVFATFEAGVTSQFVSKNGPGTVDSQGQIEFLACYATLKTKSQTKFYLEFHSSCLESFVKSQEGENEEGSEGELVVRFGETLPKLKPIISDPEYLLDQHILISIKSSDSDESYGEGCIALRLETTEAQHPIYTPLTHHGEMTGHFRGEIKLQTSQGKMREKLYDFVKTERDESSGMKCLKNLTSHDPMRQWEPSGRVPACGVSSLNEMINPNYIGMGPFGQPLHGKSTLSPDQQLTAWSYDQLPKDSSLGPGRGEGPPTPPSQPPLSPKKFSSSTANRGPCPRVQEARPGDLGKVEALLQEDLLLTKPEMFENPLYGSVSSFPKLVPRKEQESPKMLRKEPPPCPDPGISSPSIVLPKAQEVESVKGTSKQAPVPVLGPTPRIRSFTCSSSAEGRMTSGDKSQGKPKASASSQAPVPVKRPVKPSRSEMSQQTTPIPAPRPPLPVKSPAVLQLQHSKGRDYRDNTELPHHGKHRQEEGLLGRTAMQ

- binding of [3H]-AQX-MN100 to wild-type SHIP1 (wild-type SHIP1 enzyme): binds to wild-type SHIP1
- binding of [3H]-AQX-MN100 to SHIP1 with PH domain deleted (PH domain deleted SHIP1): attenuates the ability of SHIP1 to bind
SMILES: Cc1cc(O)cc2c1[C@]1(C)CC[C@H]3C(C)(C)CCC[C@]3(C)[C@H]1C2 [AQX-MN100]
